In US20260061084A1, “FIBROBLAST ACTIVATION PROTEIN (FAP) INHIBITORS, FAP CONJUGATES, AND DIAGNOSTIC AND THERAPEUTIC USES THEREOF” (Nuclidium AG, priority 2022, published 2026):

How the values were obtained:
[1] = test system: Mice bearing FAP-positive and FAP-negative xenografts; assay: PET/CT imaging: remaining PET activity in the mouse body; assay type: in vivo
Protocol: The mice were euthanized by CO2 at 4 hours p.i., and static PET scans were acquired for 30 min.
PET/CT images were acquired using β-CUBE PET scanner system (Molecubes, Gent, Belgium), with a spatial resolution of 0.85 mm and an axial field-of-view of 13 cm. Dynamic PET scans were acquired for 60 min. All PET scans were decay corrected and reconstructed into a 192×192×384 matrix by an ordered subsets maximization expectation (OSEM) algorithm using 30 iterations, a voxel size of 400×400×400 μm a 15 min per frame. CT data was used to apply attenuation correction on the PET data. The CT was imaged supine, head first, using the NanoSPECT/CTTM scanner (Bioscan Inc.). Topograms and helical CT scans of the whole mouse were first acquired using the following parameters: X-ray tube current: 177 μA, X-ray tube voltage 45 kVp, 90 seconds and 180 frames per rotation, pitch 1. CT images were reconstructed using CTReco (version r1.146), with a standard filtered back projection algorithm (exact cone beam) and post-filtered (RamLak, 100% frequency cut-off), resulting in a pixel size of 0.2 mm. Co-registered PET/CT images were visualized using maximum intensity projection (MIP) with VivoQuant software (version 4.0).

[2] = test system: HT-1080.hFAP (FAP-positive) cells; assay: In vitro cellular uptake (cell surface-bound and internalized fractions); assay type: cell-based, human; conditions: 37° C., specific uptake (HT-1080.wt subtracted)
Protocol: The cellular uptake was studied in vitro using intact cells seeded in 6-well plates overnight. […] At each investigated time point, the medium containing the unbound (free) radiotracer was removed, followed by two washing steps with ice-cold phosphate-buffered saline. The cells were then treated 2×5 min with ice-cold glycine solution (0.05 M, pH 2.8) to detach the cell surface-bound radiotracer (acid released). Afterwards, the cells containing the internalized radiotracer were detached with 1 M NaOH at 37° C. and collected for measurement. The amount of specific cell surface-bound and internalized radiotracer is expressed as percentage of the total applied activity, after subtracting the non-specific values.
The cells were then preconditioned in 360 μL of assay medium (MEM medium without supplements) at 37° C. for 60 min. 40 μL of a 2 nM solution of ^61Cu-labeled radioligand was added and the cells were incubated at 37° C. The cellular uptake was interrupted at different time points (15 min, 1 hour and 4 hours), by washing twice with ice-cold PBS. Cell surface-bound radioligand was obtained by washing cells twice with ice-cold glycine buffer (pH 2.8), followed by a collection of the internalized fraction with 1 M NaOH. The activity in each fraction was measured in a […] (Cobra II).

[3] = test system: HT-1080.hFAP tumor-bearing mice; assay: Biodistribution studies in xenografted mice; assay type: in vivo; conditions: for Biodistribution: Heart / Biodistribution: Intestine / Biodistribution: Liver / Biodistribution: Lung / Biodistribution: Muscle / Biodistribution: Spleen / Biodistribution: Stomach / Biodistribution: Adrenal / Biodistribution: Blood / Biodistribution: Pancreas / Biodistribution: HT-1080.wt / Biodistribution: HT-1080.hFAP / Biodistribution: Kidneys: i.v.; for Biodistribution: HT-1080.wt: FAP-negative tumor; for Biodistribution: HT-1080.hFAP: FAP-positive tumor; for Accumulation in FAP-positive (HT-1080.hFAP) tumor and murine-FAP-positive tissues, such as the bone marrow (bones): xenografted mice, 1 h and 4 h p.i.
Protocol: The tumors were allowed to grow to an average volume of 100-200 mm^3.
Biodistribution Studies: The xenografted mice were randomized (n=5 per group) and injected intravenously via the tail vein with the ^61Cu-labeled radioligands (100 μL, […], 0.8-1MBq). Mice were euthanized 1 h and 4 h p.i. by CO2 asphyxiation. Organs of interest and blood were collected, rinsed of excess blood, blotted dry, weighed, and counted in a […]. The samples were counted against a suitably diluted aliquot of the injected solution as the standard and the results are expressed as the percentage of the injected activity per gram of tissue (% I.A./g) ±SD.

SMILES	Cell surface fraction ([2]; 15 min)	Internalized fraction ([2]; 30 min)	Cell surface fraction ([2]; 60 min)	Internalized fraction ([2]; 60 min)	Cell surface fraction ([2]; 240 min)	Internalized fraction ([2]; 240 min)	Biodistribution: Intestine ([3]; 1 hour p.i.) [% I.A./g]	Biodistribution: Liver ([3]; 1 hour p.i.) [% I.A./g]	Biodistribution: Spleen ([3]; 1 hour p.i.) [% I.A./g]	Biodistribution: Stomach ([3]; 1 hour p.i.) [% I.A./g]	Biodistribution: Heart ([3]; 4 hours p.i.) [% I.A./g]	Biodistribution: Intestine ([3]; 4 hours p.i.) [% I.A./g]	Biodistribution: Liver ([3]; 4 hours p.i.) [% I.A./g]	Biodistribution: Lung ([3]; 4 hours p.i.) [% I.A./g]	Biodistribution: Spleen ([3]; 4 hours p.i.) [% I.A./g]	Biodistribution: Stomach ([3]; 4 hours p.i.) [% I.A./g]	Biodistribution: HT-1080.wt ([3]; 1 hour p.i.) [% I.A./g]	Biodistribution: HT-1080.wt ([3]; 4 hours p.i.) [% I.A./g]	Biodistribution: HT-1080.hFAP ([3]; 1 hour p.i.) [% I.A./g]	Biodistribution: HT-1080.hFAP ([3]; 4 hours p.i.) [% I.A./g]	further results
CN(C(=O)CCC(=O)N1CCN(C(=O)CCC(C(=O)O)N2CCN(CC(=O)[O-])CCN(CC(=O)[O-])CC2)CC1)c1ccc2nccc(C(=O)NCC(=O)N3CC(F)(F)CC3C#N)c2c1.[61Cu+2] (centres unmarked) [[^61Cu]Cu-NODAGA-4]	1.0 ± 0.7 % of the applied activity	22.2 ± 7.4 % of the applied activity	1.4 ± 0.4 % of the applied activity	22.2 ± 5.1 % of the applied activity	0.9 ± 0.6 % of the applied activity	17.4 ± 4.4 % of the applied activity	0.5 ± 0.2	0.6 ± 0.1	0.4 ± 0.0	0.5 ± 0.0	0.2 ± 0.0	0.3 ± 0.1	0.4 ± 0.0	0.3 ± 0.0	0.2 ± 0.0	0.2 ± 0.0	1.7 ± 0.2	0.6 ± 0.0	7.4 ± 1.6	3.0 ± 0.8	Retention in the body (remaining PET activity 4 h p.i.), in words [1]: lowest value; Biodistribution: Heart ([3]; 1 hour p.i.): 0.6 ± 0.0 % I.A./g; Biodistribution: Lung ([3]; 1 hour p.i.): 0.9 ± 0.1 % I.A./g; Biodistribution: Muscle ([3]; 1 hour p.i.): 0.8 ± 0.2 % I.A./g; Biodistribution: Adrenal ([3]; 4 hours p.i.): 0.5 ± 0.1 % I.A./g; Biodistribution: Blood ([3]; 4 hours p.i.): 0.4 ± 0.1 % I.A./g; Biodistribution: Muscle ([3]; 4 hours p.i.): 0.4 ± 0.1 % I.A./g; Biodistribution: Pancreas ([3]; 4 hours p.i.): 0.4 ± 0.1 % I.A./g; Accumulation in FAP-positive (HT-1080.hFAP) tumor and murine-FAP-positive tissues, such as the bone marrow (bones) [3]: high accumulation
N#CC1CC(F)(F)CN1C(=O)CNC(=O)c1ccnc2ccc(NC(=O)CCC(=O)N3CCN(C(=O)CCC(C(=O)O)N4CCN(CC(=O)[O-])CCN(CC(=O)[O-])CC4)CC3)cc12.[61Cu+2] (centres unmarked) [[^61Cu]Cu-NODAGA-3]	0.9 ± 0.3 % of the applied activity	26.6 ± 4.9 % of the applied activity	1.2 ± 0.4 % of the applied activity	36.9 ± 5.3 % of the applied activity	1.4 ± 0.4 % of the applied activity	39.4 ± 4.8 % of the applied activity	0.8 ± 0.2	0.9 ± 0.1	0.5 ± 0.1	0.8 ± 0.1	0.5 ± 0.0	0.4 ± 0.1	0.7 ± 0.1	0.7 ± 0.1	0.3 ± 0.0	0.5 ± 0.0	4.0 ± 2.2	1.8 ± 0.3	7.9 ± 0.9	6.4 ± 2.0	Biodistribution: Heart ([3]; 1 hour p.i.): 0.7 ± 0.1 % I.A./g; Biodistribution: Blood ([3]; 4 hours p.i.): 0.9 ± 0.0 % I.A./g; Biodistribution: Kidneys ([3]; 4 hours p.i.): 1.0 ± 0.2 % I.A./g; Biodistribution: Pancreas ([3]; 4 hours p.i.): 0.9 ± 0.0 % I.A./g; Accumulation in FAP-positive (HT-1080.hFAP) tumor and murine-FAP-positive tissues, such as the bone marrow (bones) [3]: high accumulation
CN(CCCN1CCN(C(=O)CCC(C(=O)O)N2CCN(CC(=O)[O-])CCN(CC(=O)[O-])CC2)CC1)c1ccc2nccc(C(=O)NCC(=O)N3CC(F)(F)CC3C#N)c2c1.[61Cu+2] (centres unmarked) [[^61Cu]Cu-NODAGA-FAPI-46, reference compound]	0.9 ± 0.3 % of the applied activity	24.3 ± 2.3 % of the applied activity	1.2 ± 0.4 % of the applied activity	36.1 ± 1.6 % of the applied activity	1.7 ± 0.4 % of the applied activity	50.0 ± 6.0 % of the applied activity	1.0 ± 0.4	0.9 ± 0.0	0.7 ± 0.1	1.0 ± 0.1	0.7 ± 0.1	0.6 ± 0.2	0.8 ± 0.2	1.0 ± 0.1	0.5 ± 0.1	0.6 ± 0.1	3.1 ± 0.0	2.5 ± 0.2	8.4 ± 1.4	7.7 ± 0.4	Retention in the body (remaining PET activity 4 h p.i.), in words [1]: highest retention in the body; Biodistribution: Pancreas ([3]; 1 hour p.i.): 2.0 ± 0.2 % I.A./g; Biodistribution: Adrenal ([3]; 4 hours p.i.): 2.0 ± 0.2 % I.A./g; Biodistribution: Kidneys ([3]; 4 hours p.i.): 1.0 ± 0.1 % I.A./g
CN(C(=O)CCC(=O)NCCNC(=O)CCC(C(=O)O)N1CCN(CC(=O)[O-])CCN(CC(=O)[O-])CC1)c1ccc2nccc(C(=O)NCC(=O)N3CC(F)(F)CC3C#N)c2c1.[61Cu+2] (centres unmarked) [[^61Cu]Cu-NODAGA-2]	1.2 ± 0.6 % of the applied activity	20.7 ± 5.5 % of the applied activity	1.4 ± 0.5 % of the applied activity	27.0 ± 6.9 % of the applied activity	1.3 ± 0.5 % of the applied activity	28.3 ± 7.5 % of the applied activity	0.5 ± 0.1	0.6 ± 0.1	0.4 ± 0.1	0.6 ± 0.1	0.3 ± 0.0	0.3 ± 0.1	0.6 ± 0.1	0.4 ± 0.0	0.2 ± 0.0	0.3 ± 0.1	1.4 ± 0.2	0.9 ± 0.1	3.5 ± 1.0	4.0 ± 0.6	Biodistribution: Heart ([3]; 1 hour p.i.): 0.6 ± 0.1 % I.A./g; Biodistribution: Lung ([3]; 1 hour p.i.): 0.8 ± 0.1 % I.A./g; Biodistribution: Muscle ([3]; 1 hour p.i.): 0.9 ± 0.1 % I.A./g; Biodistribution: Adrenal ([3]; 4 hours p.i.): 0.3 ± 0.1 % I.A./g; Biodistribution: Blood ([3]; 4 hours p.i.): 0.5 ± 0.1 % I.A./g; Biodistribution: Kidneys ([3]; 4 hours p.i.): 1.0 ± 0.1 % I.A./g; Biodistribution: Muscle ([3]; 4 hours p.i.): 0.4 ± 0.1 % I.A./g; Biodistribution: Pancreas ([3]; 4 hours p.i.): 0.5 ± 0.0 % I.A./g; Accumulation in FAP-positive (HT-1080.hFAP) tumor and murine-FAP-positive tissues, such as the bone marrow (bones) [3]: high accumulation
